The record followed here is EPA's ToxValDB 9.5 (doi:10.2903/j.efsa.2017.4722).

One series has as its system Anas platyrhynchos. The settings on record: acute; oral; unspecified; mortality.
For a further series, the system named is Apis mellifera. To be noted: acute; oral; unspecified; mortality.
A further series deals with Canidae. To be noted: oral, Dog Other.
For a further series, the system named is Colinus virginianus. To be noted: for LD50: acute, oral, mortality.
A further series relates to Daphnia magna. The settings on record: chronic/long-term; duration: 21 days; reproduction.
In the next series the test system is Landoltia sp. To be noted: chronic/long-term; duration: 14 days; frond number.
For a further series, the system named is Lepomis macrochirus. To be noted: acute; duration: 96 hours; oral; feed; mortality.
The next series deals with Neomysis kadiakensis. To be noted: acute; duration: 96 hours; oral; feed; mortality.
Another series has as its system Pimephales promelas. The settings on record: chronic/long-term; duration: 35 days; other.
The next series has as its system Typhlodromus pyri. The series can be described thus: LR50; higher = less toxic. To be noted: acute; mortality.
The subject of the next series is Oncorhynchus mykiss. The settings on record: acute; duration: 96 hours; mortality.

SMILES strings stand for the structures. ≈ marks a conversion by molar mass, not a printed value.

A word on the NOAEL: it is the highest dose or exposure tested at which no adverse effect was seen. For `Cc1cc(C)nc(NC(=O)NS(=O)(=O)c2ccccc2C(=O)OC2COC2)n1` [Oxasulfuron], the LD50 with Anas platyrhynchos was more than 2250 mg/kg-day; in the series with Apis mellifera, more than 100 µg/piece; in the series on Colinus virginianus (diet), more than 1610 mg/kg-day; in the series on Colinus virginianus, more than 2250 mg/kg-day; in the series on Rattus norvegicus (acute, oral, mortality), more than 5000 mg/kg-day. Further, the no-observed-adverse-effect level (NOAEL) was 1.3 mg/kg-day in the series on Canidae (chronic, duration: 1 years, neurology); 1.3 mg/kg-day with Canidae (subchronic, duration: 90 days, neurology); 8.3 mg/kg-day in the series on Rattus norvegicus (chronic, duration: 2 years, histopathology: nonneoplastic). The compound further returned an NOEL in the series with Colinus virginianus (reproduction developmental) of 6.91 mg/kg-day. Besides, the NOEC in the series on Daphnia magna is 14 mg/L; in the series with Landoltia sp. it was 0.0002 mg/L; in the series with Pimephales promelas it was 114 mg/L; in the series with Tagia sp. (chronic/long-term, duration: 56 days, reproduction), 2 mg/kg. Also, the LC50 in the series with Lepomis macrochirus was more than 111 µg/mL; in the series on Neomysis kadiakensis, 82.6 µg/mL (≈ 203 µM); in the series with Tagia sp. (acute, duration: 14 days, mortality) it was more than 1000 mg/kg. For the same compound, in the series with Typhlodromus pyri, the LR50 is 3.23 g/ha.

Take `OC1COC1` [Oxetan-3-ol]: the no-observed-adverse-effect level (NOAEL) with Canidae (chronic, duration: 16 weeks, hematological) was 50 mg/kg-day. Besides, in the series with Oncorhynchus mykiss, the LC50 was more than 100 µg/mL.
